Here are results for 21 compounds from patent publication US9815831B2, “3,5-disubstituted-3H-imidazo[4,5-B]pyridine and 3,5-disubstituted-3H-[1,2,3]triazolo[4,5-B] pyridine compounds as modulators of c-Met protein kinases” (Rhizen Pharmaceuticals SA, priority 2012, dated 2017).

Assay [1] deals with MKN-45. The assay can be described thus: Inhibition of MKN-45 proliferation (MTT). It is filed as cell-based, human. As to conditions: Homo sapiens, MKN-45, Table 4A; for inhibition at 0.1 µM: 100 nM, read-out: MKN45 % inhibition @ 100 nM; for GI50: read-out: MKN45 GI50. On the procedure:
3. Inhibition of MKN-45 Proliferation:
Cell proliferation assays were carried out using the high Met expressing human gastric adenocarcinoma cell line, MKN-45, according to the following schedule: • Day 1: Cells were plated in 96-well plates in complete growth medium. • Day 2: Compounds at desired concentrations were added. • Day 5: Cell viability was determined using the 3-[4,5-dimethylthiazol-2-yl]-2,5-diphenyltetrazolium bromide (MTT) dye reduction test. Results: The results are as given as % Inhibition of MKN-45 proliferation at 100 nM and GI50 values in Table 4A to 4C above. 4. Inhibition of c-Met Kinase Phosphorylation in MKN-45 Cells: […]

Assay [2] deals with T1, human recombinant Met kinase (Homo sapiens, UniProt P08581).
T1 construct: purchased Cell Signalling Technology, Beverly, Mass
T1 sequence (P08581 25-1390): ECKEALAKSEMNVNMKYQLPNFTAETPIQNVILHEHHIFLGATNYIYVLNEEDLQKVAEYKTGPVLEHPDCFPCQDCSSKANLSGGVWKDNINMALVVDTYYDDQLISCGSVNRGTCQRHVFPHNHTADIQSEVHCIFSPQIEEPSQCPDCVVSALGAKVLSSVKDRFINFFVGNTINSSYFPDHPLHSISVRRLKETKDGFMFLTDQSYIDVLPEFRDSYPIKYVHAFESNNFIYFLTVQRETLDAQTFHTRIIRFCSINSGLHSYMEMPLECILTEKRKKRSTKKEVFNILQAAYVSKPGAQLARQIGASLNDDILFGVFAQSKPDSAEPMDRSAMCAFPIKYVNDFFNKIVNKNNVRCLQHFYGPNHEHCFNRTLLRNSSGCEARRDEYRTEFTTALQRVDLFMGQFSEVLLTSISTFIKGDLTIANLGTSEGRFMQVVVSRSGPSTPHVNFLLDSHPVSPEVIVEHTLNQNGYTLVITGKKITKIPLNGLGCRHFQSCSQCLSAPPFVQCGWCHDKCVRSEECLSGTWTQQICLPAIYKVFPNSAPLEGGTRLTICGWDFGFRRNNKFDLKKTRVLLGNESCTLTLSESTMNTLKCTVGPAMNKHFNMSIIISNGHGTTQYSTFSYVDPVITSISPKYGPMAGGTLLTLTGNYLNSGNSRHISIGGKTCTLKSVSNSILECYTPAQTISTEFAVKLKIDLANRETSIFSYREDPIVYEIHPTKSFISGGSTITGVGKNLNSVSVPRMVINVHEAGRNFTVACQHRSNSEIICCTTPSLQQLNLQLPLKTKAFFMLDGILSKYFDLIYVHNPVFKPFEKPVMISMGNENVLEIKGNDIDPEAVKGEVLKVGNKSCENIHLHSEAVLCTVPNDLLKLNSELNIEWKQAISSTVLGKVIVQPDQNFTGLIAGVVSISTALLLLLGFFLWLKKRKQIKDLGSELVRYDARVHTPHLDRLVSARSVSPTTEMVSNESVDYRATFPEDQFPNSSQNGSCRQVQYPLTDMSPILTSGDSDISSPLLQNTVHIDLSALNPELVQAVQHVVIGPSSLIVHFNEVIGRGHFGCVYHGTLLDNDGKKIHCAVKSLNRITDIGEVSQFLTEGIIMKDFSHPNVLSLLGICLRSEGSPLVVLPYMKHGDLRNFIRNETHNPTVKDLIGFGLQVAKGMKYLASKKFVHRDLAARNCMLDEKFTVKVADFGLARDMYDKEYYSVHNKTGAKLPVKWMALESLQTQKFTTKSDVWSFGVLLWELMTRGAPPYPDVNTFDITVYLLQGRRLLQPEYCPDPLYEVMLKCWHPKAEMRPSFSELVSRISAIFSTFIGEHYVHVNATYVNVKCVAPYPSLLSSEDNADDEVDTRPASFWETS
The experiment in a line: Colorimetric determination of c-Met kinase activity (HTScan Met Kinase Assay Kit). It is filed as biochemical. The following applies: for inhibition at 0.1 µM: 100 nM (cells without *), read-out: c-Met Enzyme % inhibition @ 100 nM; for inhibition: cells marked *: tested @ 300 nM, read-out: c-Met Enzyme % inhibition. An excerpt: 1. MET Kinase Assay Protocol:
Colorimetric Determination of c-Met Kinase Activity
The receptor tyrosine kinase c-Met is a heterodimeric transmembrane glycoprotein involved in several cellular processes that aid in tumor progression. Phosphorylation of the tyrosine residues in the c-Met kinase domain is critical for its activity and the resulting down-stream effects. The colorimetric assay allows detection of the phosphorylated form of a biotinylated peptide upon activation of human recombinant Met kinase.
MET Kinase Assay Protocol:
c-Met Kinase activity shall be determined using an HTScan® Met Kinase Assay Kit (Cell Signalling Technology, Beverly, Mass.) with modifications. All incubations are carried out at room temperature. Briefly, 12.5 μl of a 4× reaction cocktail (DTT/Kinase buffer containing appropriate quantity of human Met kinase) is added to each well of a 96-well plate containing 12.5 μl pre-diluted compound of interest and incubated for 5 minutes. After the initial incubation, 25 μl/well of 2×ATP/biotinylated peptide is added and incubated for an additional 30 minutes. The reaction is terminated by the addition of 50 μl/well stop buffer (50 mM EDTA, pH 8.0). The reaction mixture (25 μl/well) is then transferred to a streptavidin coated plate (Perkin Elmer, Cat#4009-0010) containing 75 μl dH2O and incubated for 60 minutes. The plate is washed with 200 μl/well wash buffer (1×PBS, 0.05% Tween-20). After washing, 100 μl/well phospho-tyrosine mAb (1:1000 in wash buffer containing 1% BSA) is added and incubated for 60 minutes. After another round of washes, 100 μl/well europium labelled anti-mouse IgG (1:500 in wash buffer containing 1% BSA) is added and incubated for an additional 30 minutes. Following additional washes, 100 μl/well Delfia^(R) enhancement solution (Perkin Elmer, Cat#1244-105) is added and incubated for 45 minutes. Florescence is measured on a microplate reader (BMG Labtech., Germany) at 340 nm (excitation) and 615 nm (emission) for calculating % inhibition. Data generated can be analyzed further using Graphpad Prism (Graphpad software, San Diego Calif.) for determination of IC50.
Results: The results are as given below in Table 4A, 4B and 4C as % Inhibition or IC50 of c-Met

Read-outs that look alike come from different tables or passages of the source.

Turning to `NC(=O)CNC(=O)c1ccc(-c2ccc3nnn(Cc4ccc5cccnc5c4)c3n2)cc1` [Example 1, N-(2-amino-2-oxoethyl)-4-(3-(quinolin-7-ylmethyl)-3H-[1,2,3]triazolo[4,5-b]pyridin-5-yl) benzamide], the inhibition at 0.1 µM in assay [1] (cell printed as a number, not a class letter) is 0%; in assay [2] (Table 4A), 75 to 100%.
For `NC(=O)CCNC(=O)c1ccc(-c2ccc3nnn(Cc4ccc5ncccc5c4)c3n2)cc1` [Example 3, N-(3-amino-3-oxopropyl)-4-(3-(quinolin-6-ylmethyl)-3H-[1,2,3]triazolo[4,5-b]pyridin-5-yl)benzamide], the GI50 in assay [1] (MKN-45 proliferation) lay within 0.1 to 0.25 µM. For the same compound, the inhibition in assay [2] (Table 4A) is 50 to 75%.
The like results for `CNC(=O)CCNC(=O)c1ccc(-c2ccc3nnn(Cc4ccc5ncccc5c4)c3n2)cc1` [Example 4, N-(3-(methylamino)-3-oxopropyl)-4-(3-(quinolin-6-ylmethyl)-3H-[1,2,3]triazolo[4,5-b]pyridin-5-yl)benzamide] were, in that order, 0.25 to 1 µM and 75 to 100%.
As for `O=C(NOCCO)c1ccc(-c2ccc3nnn(Cc4ccc5ncccc5c4)c3n2)cc1` [Example 22, N-(2-hydroxyethoxy)-4-(3-(quinolin-6-ylmethyl)-3H-[1,2,3]triazolo[4,5-b]pyridin-5-yl)benzamide], in assay [1] (MKN-45 proliferation), the inhibition at 0.1 µM lay in the range of 50 to 75% and the GI50 is 0.05 to 0.1 µM. The inhibition at 0.1 µM in assay [2] (Table 4A) fell in the range of 75 to 100%.
The like results for `O=C(NOCCO)c1ccc(-c2ccc3nnn(Cc4ccc5ncccc5c4)c3n2)cc1C(F)(F)F` [Example 23, N-(2-hydroxyethoxy)-4-(3-(quinolin-6-ylmethyl)-3H-[1,2,3]triazolo[4,5-b]pyridin-5-yl)-2-(trifluoromethyl)benzamide] were, in that order, 75 to 100%, 0.05 to 0.1 µM and 75 to 100%.
For `O=C(NOCCO)c1ccc(-c2ccc3nnn(Cc4cc5cccnc5cc4F)c3n2)cc1C(F)(F)F` [Example 24, 4-(3-((7-fluoroquinolin-6-yl)methyl)-3H-[1,2,3]triazolo[4,5-b]pyridin-5-yl)-N-(2-hydroxyethoxy)-2-(trifluoromethyl)benzamide], in that order: 75 to 100%, 0.025 to 0.05 µM and 75 to 100%.
The like results for `Cc1cc(-c2ccc3nnn(Cc4cc5cccnc5cc4F)c3n2)ccc1C(=O)NOCCO` [Example 26, 4-(3-((7-fluoroquinolin-6-yl)methyl)-3H-[1,2,3]triazolo[4,5-b]pyridin-5-yl)-N-(2-hydroxyethoxy)-2-methylbenzamide] were, in that order, 75 to 100%, 0.025 to 0.05 µM and 75 to 100%.
As for `O=C(NOCCO)c1ccc(-c2ccc3nnn(Cc4cc5cccnc5cc4F)c3n2)cc1F` [Example 27, 2-fluoro-4-(3-((7-fluoroquinolin-6-yl)methyl)-3H-[1,2,3]triazolo[4,5-b]pyridin-5-yl)-N-(2-hydroxyethoxy)benzamide], in assay [1] (MKN-45 proliferation), the inhibition at 0.1 µM is 75 to 100% and the GI50 lay within 0.025 to 0.05 µM. In addition, the inhibition at 0.1 µM in assay [2] (Table 4A) is 75 to 100%.
`CC(O)CONC(=O)c1ccc(-c2ccc3nnn(Cc4ccc5ncccc5c4)c3n2)cc1Cl` (stereo not drawn) [Example 28, 2-chloro-N-(2-hydroxypropoxy)-4-(3-(quinolin-6-ylmethyl)-3H-[1,2,3]triazolo[4,5-b]pyridin-5-yl)benzamide]: in assay [1] (MKN-45 proliferation), the inhibition at 0.1 µM lay within 75 to 100% and the GI50 was in the range of 0.025 to 0.05 µM. The inhibition at 0.1 µM in assay [2] (Table 4A) was 75 to 100%.
For the compound `CCOC(=O)CONC(=O)c1ccc(-c2ccc3nnn(Cc4ccc5ncccc5c4)c3n2)cc1Cl` [Example 29, ethyl 2-(2-chloro-4-(3-(quinolin-6-ylmethyl)-3H-[1,2,3]triazolo[4,5-b]pyridin-5-yl)benzamidooxy)acetate], the inhibition at 0.1 µM in assay [1] (MKN-45 proliferation) is under 25%; in assay [2] (Table 4A), 75 to 100%. Further, the GI50 in assay [1] (MKN-45 proliferation) fell in the range of 0.1 to 0.25 µM.
The like results for `CC(C)(O)CONC(=O)c1c(F)cc(-c2ccc3nnn(Cc4ccc5ncccc5c4)c3n2)cc1F` [Example 34, 2,6-difluoro-N-(2-hydroxy-2-methylpropoxy)-4-(3-(quinolin-6-ylmethyl)-3H-[1,2,3]triazolo[4,5-b]pyridin-5-yl)benzamide] were, in that order, 75 to 100%, 75 to 100% and 0.025 to 0.05 µM.
For `CC(C)(O)CONC(=O)c1ccc(-c2ccc3nnn(Cc4ccc5ncccc5c4)c3n2)cc1F` [Example 35, 2-fluoro-N-(2-hydroxy-2-methylpropoxy)-4-(3-(quinolin-6-ylmethyl)-3H-[1,2,3]triazolo[4,5-b]pyridin-5-yl)benzamide], in assay [1] (MKN-45 proliferation), the inhibition at 0.1 µM was 75 to 100% and the GI50 lay within 0.025 to 0.05 µM. For the same compound, the inhibition at 0.1 µM in assay [2] (Table 4A) lay in the range of 75 to 100%.
For `Cc1cc(-c2ccc3nnn(Cc4ccc5ncccc5c4)c3n2)ccc1C(=O)NOC[C@@H](C)O` [Example 38, (R)—N-(2-hydroxypropoxy)-2-methyl-4-(3-(quinolin-6-ylmethyl)-3H-[1,2,3]triazolo[4,5-b]pyridin-5-yl)benzamide], the inhibition at 0.1 µM in assay [1] (MKN-45 proliferation) and in assay [2] (Table 4A) was 75 to 100% in each case.
Take `Cc1cc(-c2ccc3nnn(Cc4ccc5ncccc5c4)c3n2)ccc1C(=O)NOC(C)(C)CO` [Example 39, N-(1-hydroxy-2-methylpropan-2-yloxy)-2-methyl-4-(3-(quinolin-6-ylmethyl)-3H-[1,2,3]triazolo[4,5-b]pyridin-5-yl)benzamide]: the inhibition at 0.1 µM in assay [1] (MKN-45 proliferation) and in assay [2] (Table 4A) was 75 to 100% throughout.
As for `C/C(=N\Nc1ccccn1)c1ccc2nnn(Cc3ccc4ncccc4c3)c2n1` [Example 51, 6-((5-(1-(2-(pyridin-2-yl)hydrazono)ethyl)-3H-[1,2,3]triazolo[4,5-b]pyridin-3-yl)methyl)quinoline], in assay [1] (MKN-45 proliferation), the inhibition at 0.1 µM is under 25%. In addition, the inhibition in assay [2] (Table 4A) was under 25%.
For `NC(=O)c1ccc(-c2ccc3nnn(Cc4ccc5[nH]c(=O)ccc5c4)c3n2)cc1Cl` [Example 1004, 2-chloro-4-(3-((2-oxo-1,2-dihydroquinolin-6-yl)methyl)-3H-[1,2,3]triazolo[4,5-b]pyridin-5-yl)benzamide], in assay [2] (Table 4C), the inhibition is under 25%.
For the compound `NC(=O)c1c(F)cc(-c2ccc3nnn(Cc4ccc5[nH]c(=O)ccc5c4)c3n2)cc1F` [Example 1005, 2,6-difluoro-4-(3-((2-oxo-1,2-dihydroquinolin-6-yl)methyl)-3H-[1,2,3]triazolo[4,5-b]pyridin-5-yl)benzamide], in assay [2] (Table 4C), the inhibition at 0.1 µM was under 25%.
For the compound `NC(=O)c1c(F)cc(-c2ccc3ncn(Cc4ccc5ncccc5c4)c3n2)cc1F` [Example 1010, 2,6-difluoro-4-(3-(quinolin-6-ylmethyl)-3H-imidazo[4,5-b]pyridin-5-yl) benzamide], the inhibition in assay [2] (Table 4C) was under 25%.
As for `CCNC(=O)c1ccc(-c2ccc3ncn(Cc4ccc5ncccc5c4)c3n2)cc1Cl` [Example 1013, 2-chloro-N-ethyl-4-(3-(quinolin-6-ylmethyl)-3H-imidazo[4,5-b]pyridin-5-yl)benzamide], the inhibition in assay [2] (Table 4C) was under 25%.
With `O=C1NCc2cc(-c3ccc4nnn(Cc5ccc6ncccc6c5)c4n3)ccc21` [Example 1032, 5-(3-Quinolin-6-ylmethyl-3H-[1,2,3]triazolo[4,5-b]pyridin-5-yl)-2,3-dihydro-isoindol-1-one], the inhibition at 0.1 µM in assay [2] (Table 4C) lay within 75 to 100%.
The same measure, in the same setting: the same measure for `O=C1NCc2cc(-c3ccc4ncn(Cc5ccc6ncccc6c5)c4n3)ccc21` [Example 1033, 5-(3-Quinolin-6-ylmethyl-3H-imidazo[4,5-b]pyridin-5-yl)-2,3-dihydro-isoindol-1-one]: under 25%.

By inhibition is commonly meant how much of the control response was suppressed. For orientation: GI50 means the concentration giving 50% growth inhibition.
